Marks after values point to notes of the source that are not given here.
Experiments:
[1] = test system: Guinea-pigs sensitized to ovalbumin; test: Guinea pig model of asthma, airway hyper-reactivity 24 h after OVA challenge; assay type: in vivo; conditions: Dexamethasone 15 mg/kg, glycan compounds 10 mg/kg, intratracheal microspray
Procedure: A guinea pig model of asthma was used. Guinea-pigs (8 per group) were sensitized to ovalbumin by two intraperitoneal injections of ovalbumin (grade V, 20 μg) in aluminium hydroxide gel on Days 1 and 11. On day 20 (24 hours prior to assessing airway hyper-reactivity (AHR)) each animal received a challenge dose of OVA—this took the form of a 1 hour aerosol exposure of OVA (10 μg). The negative control animals received, no sensitization and no challenge. The positive controls were sensitized and challenged but were either given no further treatment or were treated with vehicle (saline). Test compounds (PPS and the sulfated xylan pentasaccharide) and vehicle were administered by intratracheal administration as an aqueous microspray using a Penn Century device. The device used was the FMJ250 high pressure syringe and a 1A-1C microspray delivery tube. The particle size delivery goes up to 32 μm. During the study the volume delivered was 100 ul for all test formulations. The test compounds were administered 30 min before challenge with OVA. The animals underwent surgery 24 hours after challenge to insert a cannula into the trachea, the cannula was connected to the instrumentation which measured pressure and changes in airflow. After surgery the animals were allowed to stabilize for 10 min before baseline readings were taken. Bronchoconstriction was evoked with aerosolized methacholine (10 mg/ml and 30 mg/ml) for 20 seconds. The difference between baseline readings and that obtained after methacholine were used to calculate Cdyn and RL. Thus, measurements of lung function were taken approximately 25 hours after the drug was administered. Both pentosan polysulfate and the sulfated xylan pentasaccharide when administered at 10 mg/kg were effective in reducing the airway hyper-reactivity readings. Their efficacy was approximately equivalent to that usually seen with 7.5 mg/kg of dexamethasone in this model.

Human leukocyte elastase = molecular target: T1, Human leukocyte elastase (Homo sapiens, UniProt P08246); test: Elastase assay with fluorogenic substrate; assay type: biochemical; conditions: fluorogenic substrate MeOSuc-Ala-Ala-Pro-Val-amido-methylcoumarin, pH 7.4, 37° C., 60 minutes; read-out: IC50, inhibition of human leukocyte elastase activity
T1 sequence (P08246 30-267): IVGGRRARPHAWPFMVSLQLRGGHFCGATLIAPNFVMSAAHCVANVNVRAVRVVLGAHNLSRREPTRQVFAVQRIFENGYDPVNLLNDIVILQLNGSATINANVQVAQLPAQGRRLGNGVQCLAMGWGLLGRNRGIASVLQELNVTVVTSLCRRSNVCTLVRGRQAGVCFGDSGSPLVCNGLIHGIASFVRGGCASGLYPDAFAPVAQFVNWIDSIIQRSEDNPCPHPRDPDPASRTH
Procedure: Elastase is a protein that is a potential target for the treatment of COPD. Elastase assays were performed in 96-well plastic microplates for easy quantification by the fluorescent plate reader. Human leukocyte elastase (5 nM/well) was incubated in the presence of absence of pentosan polysulfate, or other sulfated polysaccharides, with the fluorogenic substrate MeOSuc-Ala-Ala-Pro-Val-amido-methylcoumarin (20 μM/well) in a sodium phosphate buffer, pH 7.4. The mixture was incubated at 37° C. for 60 minutes before the reaction was stopped by the addition of 10 μl/well of […] acetic acid and the mixture transferred to a 96-well microplate with fluorescence being measured using an excitation wavelength of 355 nm and an emission wavelength of 460 nm. Various concentrations of inhibitors were used to allow the calculation of the concentration of polysaccharide required to inhibit enzyme activity by 50% (IC50).

[2] = molecular target: T2, recombinant human eotaxin (CCL11) (Homo sapiens, UniProt P51671); test: BIAcore inhibition of eotaxin-1 binding to immobilized heparin; conditions: BIAcore chip, FIG. 3D
T2 construct: host or cells: E. coli
Description: (§1) The optical phenomenon of surface plasmon resonance is used to monitor physical interactions between molecules. Passing a solution of a potential protein ligand (e.g. IL-4, IL-5 or eotaxin) over a sensor surface to which a target (e.g. heparin) is coupled monitors the real-time binding of protein ligands to the immobilized target. Detection is achieved by measuring refractive index changes very close to the sensor surface. When the refractive index is altered, the angle at which plasmon resonance occurs changes and this change directly correlates with the amount of protein interacting with the surface. A BIAcore 2000 is conveniently used. […]
(§2) Biotinylated heparin is immobilized on the biosensor chip. […] Solutions containing potential protein ligands of interest are injected over the sensor chip surface, and the binding is measured in real time (Fernig, In: Proteoglycan protocols, Ed. R. V. Iozzo, Humana Press, Totowa, N.J., USA, 2001). Baculovirus expressed recombinant human IL-4 (rhIL-4) and baculovirus expressed recombinant human IL-5 (rhIL-5) readily bind to heparin immobilized by this method (see PCT/AU2005/000551). […] Similarly, recombinant human eotaxin (CCL11) expressed in E. coli binds readily to immobilized heparin and binding is specific as there is little eotaxin binding to sensor chips lacking heparin. […]

[3] = molecular target: T3, recombinant human IL-5 (rhIL-5) (Homo sapiens, UniProt P05113); test: BIAcore inhibition of IL-5 binding to immobilized heparin; conditions: BIAcore chip, titration, FIG. 3B
T3 construct: made in house; host or cells: baculovirus expression system
T3 sequence (P05113 20-134): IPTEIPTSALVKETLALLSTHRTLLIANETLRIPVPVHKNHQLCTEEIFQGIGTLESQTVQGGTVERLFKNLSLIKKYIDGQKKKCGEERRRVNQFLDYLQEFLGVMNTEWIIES
Description: as §1, §2

IC50 (Human leukocyte elastase) [nM]	IC50 [2] [nM]	IC50 [3] [nM]	Molecule	Cdyn, % increase from that of the positive control ([1]; MCh 10 mg/ml) [% **]	RL, % decrease from that of the positive control ([1]; MCh 10 mg/ml) [% **]	Cdyn, % increase from that of the positive control ([1]; MCh 30 mg/ml) [% **^]	RL, % decrease from that of the positive control ([1]; MCh 30 mg/ml) [% **]
–	–	–	C[C@@H]1C[C@H]2[C@@H]3CCC4=CC(=O)C=C[C@]4(C)[C@@]3(F)[C@@H](O)C[C@]2(C)[C@@]1(O)C(=O)CO [Dexamethasone]	76.5	93.9	84.8	86
~200	~160	30 to 100	heparin	–	–	–	–

Reference: patent US20180078576A1, “SULPHATED XYLANS FOR TREATMENT OR PROPHYLAXIS OF RESPIRATORY DISEASES” (Paradigm Biopharmaceuticals Limited, priority 2007, published 2018)
